The text below walks through data of patent US9073855B2, “BCL-2 selective apoptosis-inducing agents for the treatment of cancer and immune diseases” (AbbVie Inc., priority 2008, dated 2015).

One assay has as its target GST-Bcl-XL (Homo sapiens, UniProt Q07817). The experiment in a line: TR-FRET binding assay, GST-Bcl-XL with F-Bak peptide probe. The following applies: TR-FRET Binding Affinity, GST-Bcl-XL, F-Bak peptide probe. The method, then:
(§1) Tb-anti-GST antibody was purchased from Invitrogen (Catalog No. PV4216).
(§2) Representative compounds were serially diluted in dimethyl sulfoxide (DMSO) starting at 50 μM (2× starting concentration; 10% DMSO) and 10 μL were transferred into a 384-well plate.
(§3) The samples were then mixed on a shaker for 1 minute and incubated for an additional 3 hours at room temperature. For each assay, the probe/antibody and protein/probe/antibody were included on each assay plate as negative and positive controls, respectively. Fluorescence was measured on the ENVISION plate reader (Perkin Elmer) using a 340/35 nm excitation filter and 520/525 (F-Bak peptide) and 495/510 nm (Tb-labeled […] antibody) emission filters.
(§4) The inhibition constant (Ki) is the dissociation constant of an enzyme-inhibitor complex or a protein/small molecule complex, wherein the small molecule is inhibiting binding of one protein to another protein or peptide. […] Inhibition constants were determined using Wang's equation (Wang Z-X., An Exact Mathematical Expression For Describing Competitive Binding Of Two Different Ligands To A Protein Molecule. FEBS Lett. 1995, 360:111-4).
For orientation: In TR-FRET formats the signal depends on donor and acceptor labels being close together.

The next assay deals with GST-Bcl-2 (Homo sapiens, UniProt P10415). The assay can be described thus: TR-FRET binding assay, GST-Bcl-2 with F-Bak peptide probe. The following applies: TR-FRET Binding Affinity. As to the method:
as §1, §2, §3, §4

Some results are limits rather than exact numbers.

GST-Bcl-XL, sequence (Q07817 whole entry): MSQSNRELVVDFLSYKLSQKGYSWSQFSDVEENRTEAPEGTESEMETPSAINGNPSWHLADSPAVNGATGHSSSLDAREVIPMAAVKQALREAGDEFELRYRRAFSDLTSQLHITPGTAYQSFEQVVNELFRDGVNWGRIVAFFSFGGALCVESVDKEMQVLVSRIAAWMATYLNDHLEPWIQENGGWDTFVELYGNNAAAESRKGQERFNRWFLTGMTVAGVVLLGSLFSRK
GST-Bcl-2, sequence (P10415 whole entry): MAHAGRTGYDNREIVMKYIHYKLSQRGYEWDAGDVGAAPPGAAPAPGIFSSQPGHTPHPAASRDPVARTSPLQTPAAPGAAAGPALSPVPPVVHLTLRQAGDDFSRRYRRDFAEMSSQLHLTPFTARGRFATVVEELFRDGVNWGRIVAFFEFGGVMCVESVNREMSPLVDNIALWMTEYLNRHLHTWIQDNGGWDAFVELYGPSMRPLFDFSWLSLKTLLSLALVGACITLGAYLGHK

On to `O=C(NS(=O)(=O)c1ccc(NCC2CCOCC2)c([N+](=O)[O-])c1)c1ccc(N2CCN(Cc3ccccc3-c3ccc(Cl)cc3)CC2)cc1Oc1ccccc1` [Example 1, 4-{4-[(4′-chloro-1,1′-biphenyl-2-yl)methyl]piperazin-1-yl}-N-({3-nitro-4-[(tetrahydro-2H-pyran-4-ylmethyl)amino]phenyl}sulfonyl)-2-phenoxybenzamide], for which the Ki (usually the dissociation constant of the complex between target and ligand, obtained from inhibition or displacement) is 578 nM on GST-Bcl-XL and 6.77 nM at GST-Bcl-2 (GST-Bcl-2, F-Bak peptide probe).
Taken in the same sequence, the figures for `CC1(C)CCC(c2ccc(Cl)cc2)=C(CN2CCN(c3ccc(C(=O)NS(=O)(=O)c4ccc(NCCCN5CCOCC5)c([N+](=O)[O-])c4)c(Oc4ccccc4)c3)CC2)C1` [Example 19, 4-(4-{[2-(4-chlorophenyl)-5,5-dimethylcyclohex-1-en-1-yl]methyl}piperazin-1-yl)-N-({4-[(3-morpholin-4-ylpropyl)amino]-3-nitrophenyl}sulfonyl)-2-phenoxybenzamide] were 20 nM and 0.847 nM.
Taken in the same sequence, the figures for `CC1(C)CCC(CN2CCN(c3ccc(C(=O)NS(=O)(=O)c4ccc(NCCCN5CCOCC5)c([N+](=O)[O-])c4)c(Oc4ccc5[nH]ncc5c4)c3)CC2)=C(c2ccc(Cl)cc2)C1` [Example 20, 4-(4-{[2-(4-chlorophenyl)-4,4-dimethylcyclohex-1-en-1-yl]methyl}piperazin-1-yl)-2-(1H-indazol-5-yloxy)-N-({4-[(3-morpholin-4-ylpropyl)amino]-3-nitrophenyl}sulfonyl)benzamide] were 77.6 nM and 2.36 nM.
Consider `O=C(NS(=O)(=O)c1ccc(N2C(=O)C3CCC3C2=O)cc1)c1ccc(N2CCN(Cc3ccccc3-c3ccc(Cl)cc3)CC2)cc1Oc1ccccc1` (stereo not drawn) [Example 28, 4-{4-[(4′-chloro-1,1′-biphenyl-2-yl)methyl]piperazin-1-yl}-N-{[4-(2,4-dioxo-3-azabicyclo[3.2.0]hept-3-yl)phenyl]sulfonyl}-2-phenoxybenzamide], for which the Ki on GST-Bcl-XL is greater than 660 nM; on GST-Bcl-2 (GST-Bcl-2, F-Bak peptide probe), 33.7 nM.
Taken in the same sequence, the figures for `CC1CC(=O)NN=C1c1ccc(S(=O)(=O)NC(=O)c2ccc(N3CCN(Cc4ccccc4-c4ccc(Cl)cc4)CC3)cc2Oc2ccccc2)cc1` (stereo not drawn) [Example 29, 4-{4-[(4′-chloro-1,1′-biphenyl-2-yl)methyl]piperazin-1-yl}-N-{[4-(4-methyl-6-oxo-1,4,5,6-tetrahydropyridazin-3-yl)phenyl]sulfonyl}-2-phenoxybenzamide] were greater than 660 nM and 11.9 nM.
Take `CC1(C)CN(c2ccc(S(=O)(=O)NC(=O)c3ccc(N4CCN(Cc5ccccc5-c5ccc(Cl)cc5)CC4)cc3Oc3ccccc3)cc2)C1=O` [Example 30, 4-{4-[(4′-chloro-1,1′-biphenyl-2-yl)methyl]piperazin-1-yl}-N-{[4-(3,3-dimethyl-2-oxoazetidin-1-yl)phenyl]sulfonyl}-2-phenoxybenzamide]: the Ki was greater than 660 nM on GST-Bcl-XL and 103 nM on GST-Bcl-2 (GST-Bcl-2, F-Bak peptide probe).
The corresponding values for `O=C(NS(=O)(=O)c1ccc(-n2ncc([N+](=O)[O-])n2)cc1)c1ccc(N2CCN(Cc3ccccc3-c3ccc(Cl)cc3)CC2)cc1Oc1ccccc1` [Example 31, 4-{4-[(4′-chloro-1,1′-biphenyl-2-yl)methyl]piperazin-1-yl}-N-{[4-(4-nitro-2H-1,2,3-triazol-2-yl)phenyl]sulfonyl}-2-phenoxybenzamide] are greater than 660 nM and 36.6 nM.
Consider `O=C(NS(=O)(=O)c1ccccc1OCCN1CCCCC1)c1ccc(N2CCN(Cc3ccccc3-c3ccc(Cl)cc3)CC2)cc1Oc1ccccc1` [Example 32, 4-{4-[(4′-chloro-1,1′-biphenyl-2-yl)methyl]piperazin-1-yl}-2-phenoxy-N-{[2-(2-piperidin-1-ylethoxy)phenyl]sulfonyl}benzamide], for which the Ki at GST-Bcl-XL was greater than 660 nM; on GST-Bcl-2 (GST-Bcl-2, F-Bak peptide probe), 61.1 nM.
Taken in the same sequence, the figures for `CCN1CCCC1CNC(=O)c1cc(S(=O)(=O)NC(=O)c2ccc(N3CCN(Cc4ccccc4-c4ccc(Cl)cc4)CC3)cc2Oc2ccccc2)ccc1OC` (stereo not drawn) [Example 33, 4-{4-[(4′-chloro-1,1′-biphenyl-2-yl)methyl]piperazin-1-yl}-N-{[3-({[(1-ethylpyrrolidin-2-yl)methyl]amino}carbonyl)-4-methoxyphenyl]sulfonyl}-2-phenoxybenzamide] were 333 nM and 6.68 nM.
The compound `O=C(NS(=O)(=O)c1ccc(NCCCN2CCOCC2)c([N+](=O)[O-])c1)c1ccc(N2CCN(Cc3ccccc3-c3ccc(Cl)cc3)CC2)cc1Oc1ccc2[nH]ccc2c1` [Example 59, 4-{4-[(4′-chloro-1,1′-biphenyl-2-yl)methyl]piperazin-1-yl}-2-(1H-indol-5-yloxy)-N-({4-[(3-morpholin-4-ylpropyl)amino]-3-nitrophenyl}sulfonyl)benzamide] gave a Ki at GST-Bcl-XL of 1260 nM. In other words, the single-digit micromolar range.
Take `CN1[C@@H]2CC[C@H]1CC(Nc1ccc(S(=O)(=O)NC(=O)c3ccc(N4CCN(CC5=C(c6ccc(Cl)cc6)CC(C)(C)CC5)CC4)cc3Oc3ccc4[nH]ccc4c3)cc1[N+](=O)[O-])C2` (stereo partly drawn) [Example 467, 4-(4-{[2-(4-chlorophenyl)-4,4-dimethylcyclohex-1-en-1-yl]methyl}piperazin-1-yl)-2-(1H-indol-5-yloxy)-N-[(4-{[(1R,5S)-8-methyl-8-azabicyclo[3.2.1]oct-3-yl]amino}-3-nitrophenyl)sulfonyl]benzamide]: on GST-Bcl-2, the affinity corresponds to a Ki of 0.08 nM.
Still for that read-out and setting: the value for `COCC1(C)CCC(c2ccc(Cl)cc2)=C(CN2CCN(c3ccc(C(=O)NS(=O)(=O)c4cnc(OCC5CCC(C)(O)CC5)c(Cl)c4)c(Oc4cccc5[nH]ncc45)c3)CC2)C1` (stereo not drawn) [Example 539, N-({5-chloro-6-[(trans-4-hydroxy-4-methylcyclohexyl)methoxy]pyridin-3-yl}sulfonyl)-4-(4-{[2-(4-chlorophenyl)-5-(methoxymethyl)-5-methylcyclohex-1-en-1-yl]methyl}piperazin-1-yl)-2-(1H-indazol-4-yloxy)benzamide] was less than 0.01 nM; that for `CC1(C)CCC(CN2CCN(c3ccc(C(=O)NS(=O)(=O)c4ccc(NC[C@H]5CN(C6COC6)CCO5)c([N+](=O)[O-])c4)c(Oc4cccc5[nH]ncc45)c3)CC2)=C(c2ccc(Cl)cc2)C1` [Example 540, 4-(4-{[2-(4-chlorophenyl)-4,4-dimethylcyclohex-1-en-1-yl]methyl}piperazin-1-yl)-2-(1H-indazol-4-yloxy)-N-{[3-nitro-4-({[(2S)-4-(oxetan-3-yl)morpholin-2-yl]methyl}amino)phenyl]sulfonyl}benzamide] was less than 0.01 nM.
`CC1(C)CCC(CN2CCN(c3ccc(C(=O)NS(=O)(=O)c4ccc(NC[C@H]5CN(C6COC6)CCO5)c([N+](=O)[O-])c4)c(Oc4cccc5[nH]cnc45)c3)CC2)=C(c2ccc(Cl)cc2)C1` [Example 541, 2-(1H-benzimidazol-4-yloxy)-4-(4-{[2-(4-chlorophenyl)-4,4-dimethylcyclohex-1-en-1-yl]methyl}piperazin-1-yl)-N-{[3-nitro-4-({[(2S)-4-(oxetan-3-yl)morpholin-2-yl]methyl}amino)phenyl]sulfonyl}benzamide]: the Ki at GST-Bcl-2 amounted to 0.167 nM.
Still for that read-out and setting: the value for `CC1(C)CCC(CN2CCN(c3ccc(C(=O)NS(=O)(=O)c4cnc(OCC5CCC(C)(O)CC5)c(C#N)c4)c(Oc4cccc5[nH]ncc45)c3)CC2)=C(c2ccc(Cl)cc2)C1` (stereo not drawn) [Example 544, 4-(4-{[2-(4-chlorophenyl)-4,4-dimethylcyclohex-1-en-1-yl]methyl}piperazin-1-yl)-N-({5-cyano-6-[(trans-4-hydroxy-4-methylcyclohexyl)methoxy]pyridin-3-yl}sulfonyl)-2-(1H-indazol-4-yloxy)benzamide] was less than 0.01 nM; that for `CC1(C)CCC(CN2CCN(c3ccc(C(=O)NS(=O)(=O)c4cnc(OCC5(F)CCC(C#N)CC5)c(Cl)c4)c(Oc4cccc5[nH]ncc45)c3)CC2)=C(c2ccc(Cl)cc2)C1` (stereo not drawn) [Example 549, N-({5-chloro-6-[(cis-4-cyano-1-fluorocyclohexyl)methoxy]pyridin-3-yl}sulfonyl)-4-(4-{[2-(4-chlorophenyl)-4,4-dimethylcyclohex-1-en-1-yl]methyl}piperazin-1-yl)-2-(1H-indazol-4-yloxy)benzamide] was less than 0.01 nM.
The same measure, in the same setting: the value for `COC1(C)CCC(c2ccc(Cl)cc2)=C(CN2CCN(c3ccc(C(=O)NS(=O)(=O)c4cnc(OCC5CCC(C)(O)CC5)c(Cl)c4)c(Oc4cccc5[nH]ncc45)c3)CC2)C1` (stereo not drawn) [Example 553, N-({5-chloro-6-[(trans-4-hydroxy-4-methylcyclohexyl)methoxy]pyridin-3-yl}sulfonyl)-4-(4-{[2-(4-chlorophenyl)-5-methoxy-5-methylcyclohex-1-en-1-yl]methyl}piperazin-1-yl)-2-(1H-indazol-4-yloxy)benzamide] was less than 0.01 nM; that for `CC1(C)CCC(CN2CCN(c3ccc(C(=O)NS(=O)(=O)c4cnc(NCC5CCC(C)(O)CC5)c([N+](=O)[O-])c4)c(Oc4cccc5[nH]ncc45)c3)CC2)=C(c2ccc(Cl)cc2)C1` (stereo not drawn) [Example 555, 4-(4-{[2-(4-chlorophenyl)-4,4-dimethylcyclohex-1-en-1-yl]methyl}piperazin-1-yl)-N-[(6-{[(cis-4-hydroxy-4-methylcyclohexyl)methyl]amino}-5-nitropyridin-3-yl)sulfonyl]-2-(H-indazol-4-yloxy)benzamide] was less than 0.01 nM.
